One assay deals with mfT1R2a/mfT1R3 T105E (Oryzias latipes, UniProt Q2MHK2+Q2MHK5, Q2MHK2:T105E). Put plainly: cell-based. The note with it: EC50, [Cl-]o=10 mM; unit inferred.
The target of a further assay is mfT1R2a K265A/mfT1R3 (Oryzias latipes, UniProt Q2MHK2+Q2MHK5, Q2MHK5:K265A). Put plainly: cell-based. The note with it: EC50, [Cl-]o=10 mM; no unit printed with values, x-axis title L-Gln [M].
For the next assay, the target named is mfT1R2a K265E/mfT1R3 (Oryzias latipes, UniProt Q2MHK2+Q2MHK5, Q2MHK5:K265E). The assay can be described thus: cell-based. Conditions: EC50, [Cl-]o=10 mM; no unit printed with values, x-axis title L-Gln [M].
mfT1R2a K265E/mfT1R3, sequence (Q2MHK5 entry or part of it K265E, one chain of several): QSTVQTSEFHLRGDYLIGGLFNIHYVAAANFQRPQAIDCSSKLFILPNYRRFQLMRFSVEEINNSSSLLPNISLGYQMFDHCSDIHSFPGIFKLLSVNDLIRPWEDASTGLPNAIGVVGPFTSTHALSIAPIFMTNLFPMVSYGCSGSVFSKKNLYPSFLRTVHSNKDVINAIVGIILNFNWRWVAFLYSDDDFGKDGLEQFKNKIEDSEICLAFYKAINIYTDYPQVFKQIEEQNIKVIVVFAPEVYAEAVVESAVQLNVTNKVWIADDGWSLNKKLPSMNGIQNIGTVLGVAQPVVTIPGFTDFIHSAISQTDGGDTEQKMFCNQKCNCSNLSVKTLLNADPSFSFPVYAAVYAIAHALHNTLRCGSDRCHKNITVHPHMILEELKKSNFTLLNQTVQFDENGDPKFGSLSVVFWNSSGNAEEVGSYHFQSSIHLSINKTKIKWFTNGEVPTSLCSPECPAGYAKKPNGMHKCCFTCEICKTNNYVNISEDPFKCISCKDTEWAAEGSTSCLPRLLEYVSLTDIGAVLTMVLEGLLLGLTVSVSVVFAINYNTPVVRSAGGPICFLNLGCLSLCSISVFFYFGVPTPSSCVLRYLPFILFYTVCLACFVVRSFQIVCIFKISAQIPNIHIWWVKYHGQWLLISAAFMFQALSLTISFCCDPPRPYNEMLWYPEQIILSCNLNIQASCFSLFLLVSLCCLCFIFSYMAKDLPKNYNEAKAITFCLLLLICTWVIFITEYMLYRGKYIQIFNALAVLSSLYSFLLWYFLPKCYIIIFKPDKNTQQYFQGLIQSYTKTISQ
In a further assay the target is mfT1R2a K295P/mfT1R3 (Oryzias latipes, UniProt Q2MHK2+Q2MHK5, Q2MHK5:K295P). Put plainly: cell-based. Conditions: EC50, [Cl-]o=10 mM; no unit printed with values, x-axis title L-Gln [M].
mfT1R2a K295P/mfT1R3, sequence (Q2MHK5 entry or part of it K295P, one chain of several): as the sequence (Q2MHK5 entry or part of it K265E, one chain of several) above, with E246K, K276P counted along it
The next assay has as its target T1, mfT1R2a/mfT1R3 (Oryzias latipes, UniProt Q2MHK2+Q2MHK5).
T1 sequence (Q2MHK5 20-819): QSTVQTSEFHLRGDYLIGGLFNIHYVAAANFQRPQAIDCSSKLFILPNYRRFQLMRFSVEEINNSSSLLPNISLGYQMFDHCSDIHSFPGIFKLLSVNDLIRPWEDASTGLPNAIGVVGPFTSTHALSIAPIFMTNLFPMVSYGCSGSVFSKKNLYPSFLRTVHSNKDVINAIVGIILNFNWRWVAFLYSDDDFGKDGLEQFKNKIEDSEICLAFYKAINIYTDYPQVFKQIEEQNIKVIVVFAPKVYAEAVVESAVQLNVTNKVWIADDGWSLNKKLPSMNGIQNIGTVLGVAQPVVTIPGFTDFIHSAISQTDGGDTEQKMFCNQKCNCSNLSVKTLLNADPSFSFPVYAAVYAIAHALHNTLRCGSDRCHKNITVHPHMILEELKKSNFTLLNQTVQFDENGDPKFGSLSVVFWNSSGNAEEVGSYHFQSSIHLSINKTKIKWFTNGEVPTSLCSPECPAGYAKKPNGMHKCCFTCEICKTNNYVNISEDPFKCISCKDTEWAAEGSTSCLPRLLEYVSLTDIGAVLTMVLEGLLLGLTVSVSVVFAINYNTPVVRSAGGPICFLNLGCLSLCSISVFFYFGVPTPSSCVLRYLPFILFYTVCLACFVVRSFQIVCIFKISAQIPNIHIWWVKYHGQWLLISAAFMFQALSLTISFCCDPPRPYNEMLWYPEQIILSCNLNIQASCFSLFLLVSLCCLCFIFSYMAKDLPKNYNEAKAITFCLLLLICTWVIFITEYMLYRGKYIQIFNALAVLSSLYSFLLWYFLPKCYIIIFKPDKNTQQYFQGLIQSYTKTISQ
T1 sequence (Q2MHK2 20-853): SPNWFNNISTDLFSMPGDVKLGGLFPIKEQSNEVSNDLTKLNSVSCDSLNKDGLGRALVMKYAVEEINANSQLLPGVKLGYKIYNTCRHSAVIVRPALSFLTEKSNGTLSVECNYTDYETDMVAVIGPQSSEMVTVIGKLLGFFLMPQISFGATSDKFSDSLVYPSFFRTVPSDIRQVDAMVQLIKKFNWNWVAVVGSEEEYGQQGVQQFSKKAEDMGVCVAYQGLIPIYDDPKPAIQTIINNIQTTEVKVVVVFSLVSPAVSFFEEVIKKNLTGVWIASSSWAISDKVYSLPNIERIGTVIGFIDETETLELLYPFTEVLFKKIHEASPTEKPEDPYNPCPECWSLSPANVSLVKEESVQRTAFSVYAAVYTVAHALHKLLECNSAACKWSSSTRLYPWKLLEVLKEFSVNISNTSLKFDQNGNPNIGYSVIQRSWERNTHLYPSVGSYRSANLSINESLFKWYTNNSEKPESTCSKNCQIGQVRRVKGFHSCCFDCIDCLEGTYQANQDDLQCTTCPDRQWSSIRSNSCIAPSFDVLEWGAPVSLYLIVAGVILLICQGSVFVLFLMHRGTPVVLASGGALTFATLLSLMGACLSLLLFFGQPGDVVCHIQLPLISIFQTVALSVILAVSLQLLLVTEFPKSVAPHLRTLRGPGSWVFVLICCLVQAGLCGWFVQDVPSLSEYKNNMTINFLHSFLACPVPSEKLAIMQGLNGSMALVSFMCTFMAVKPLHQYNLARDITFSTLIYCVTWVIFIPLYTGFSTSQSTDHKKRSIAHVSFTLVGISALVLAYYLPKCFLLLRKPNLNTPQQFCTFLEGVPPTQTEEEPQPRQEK
The assay can be described thus: Ca2+ mobilization dose-response assay, stable cells expressing mfT1R2a/mfT1R3 with G16gust44.

Another assay deals with mfT1R2b E260K/mfT1R3. Format: cell-based, medaka fish. Conditions: 10 mM vs high Cl- buffer.
In another assay the test system is mfT1R2b E260A/mfT1R3. Format: cell-based, medaka fish. The note with it: 10 mM vs high Cl- buffer.
The next assay concerns the target mfT1R2c/mfT1R3 T105E (Oryzias latipes, UniProt Q2MHK2+Q2MHK3, Q2MHK2:T105E). The assay can be described thus: cell-based. Conditions: EC50, [Cl-]o=10 mM; unit inferred.
The target in another assay is mfT1R2c/mfT1R3 (Oryzias latipes, UniProt Q2MHK2+Q2MHK3). The assay can be described thus: Ca2+ mobilization dose-response assay, stable cells expressing mfT1R2c/mfT1R3 with G16gust44.
mfT1R2c/mfT1R3, sequence (Q2MHK3 22-818, one chain of several): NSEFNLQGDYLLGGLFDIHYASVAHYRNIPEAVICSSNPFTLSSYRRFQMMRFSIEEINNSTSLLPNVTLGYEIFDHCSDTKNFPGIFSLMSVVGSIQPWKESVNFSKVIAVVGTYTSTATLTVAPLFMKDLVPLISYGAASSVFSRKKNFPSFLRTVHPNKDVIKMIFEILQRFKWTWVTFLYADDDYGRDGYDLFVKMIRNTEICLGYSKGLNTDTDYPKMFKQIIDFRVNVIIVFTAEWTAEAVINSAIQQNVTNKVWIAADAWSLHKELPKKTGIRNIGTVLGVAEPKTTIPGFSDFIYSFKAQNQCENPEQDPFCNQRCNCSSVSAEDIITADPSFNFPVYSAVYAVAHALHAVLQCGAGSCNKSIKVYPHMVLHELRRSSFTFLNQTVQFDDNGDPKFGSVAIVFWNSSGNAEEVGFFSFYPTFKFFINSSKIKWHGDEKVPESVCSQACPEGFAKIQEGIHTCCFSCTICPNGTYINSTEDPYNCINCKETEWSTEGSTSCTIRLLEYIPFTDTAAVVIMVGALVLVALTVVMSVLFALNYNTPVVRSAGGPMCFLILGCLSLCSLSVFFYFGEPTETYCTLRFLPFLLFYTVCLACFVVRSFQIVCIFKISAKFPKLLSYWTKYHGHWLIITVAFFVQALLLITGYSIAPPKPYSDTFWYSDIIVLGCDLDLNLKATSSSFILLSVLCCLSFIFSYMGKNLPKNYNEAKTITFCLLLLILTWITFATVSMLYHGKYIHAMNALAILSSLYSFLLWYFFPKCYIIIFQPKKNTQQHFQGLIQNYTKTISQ
A further assay concerns the target T2, zfT1R2b/zfT1R3 (Danio rerio, UniProt A0A8M1NDZ5+Q2MHK9).
T2 sequence (A0A8M1NDZ5 18-823): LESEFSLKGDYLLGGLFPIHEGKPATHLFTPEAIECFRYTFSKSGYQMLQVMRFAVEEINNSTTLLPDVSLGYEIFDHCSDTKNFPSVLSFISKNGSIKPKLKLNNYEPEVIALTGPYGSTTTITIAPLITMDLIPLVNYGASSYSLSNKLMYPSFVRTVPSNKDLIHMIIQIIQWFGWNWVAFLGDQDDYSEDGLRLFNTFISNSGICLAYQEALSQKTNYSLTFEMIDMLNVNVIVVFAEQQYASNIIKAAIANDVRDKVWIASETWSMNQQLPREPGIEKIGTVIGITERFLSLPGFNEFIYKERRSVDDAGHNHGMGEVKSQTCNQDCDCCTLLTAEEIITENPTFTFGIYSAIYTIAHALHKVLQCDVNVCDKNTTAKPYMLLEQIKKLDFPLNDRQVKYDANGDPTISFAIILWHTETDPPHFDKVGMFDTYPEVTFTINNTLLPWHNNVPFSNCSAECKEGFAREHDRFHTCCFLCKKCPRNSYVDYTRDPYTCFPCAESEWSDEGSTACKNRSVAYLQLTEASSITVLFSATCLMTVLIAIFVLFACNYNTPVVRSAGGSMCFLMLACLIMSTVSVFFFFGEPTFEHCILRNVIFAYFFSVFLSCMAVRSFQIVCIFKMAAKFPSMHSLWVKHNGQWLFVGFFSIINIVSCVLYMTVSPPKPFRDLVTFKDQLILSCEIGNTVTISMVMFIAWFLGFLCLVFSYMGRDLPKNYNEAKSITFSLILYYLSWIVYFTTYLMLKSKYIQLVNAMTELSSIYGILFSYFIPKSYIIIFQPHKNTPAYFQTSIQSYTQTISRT
T2 sequence (Q2MHK9 25-850): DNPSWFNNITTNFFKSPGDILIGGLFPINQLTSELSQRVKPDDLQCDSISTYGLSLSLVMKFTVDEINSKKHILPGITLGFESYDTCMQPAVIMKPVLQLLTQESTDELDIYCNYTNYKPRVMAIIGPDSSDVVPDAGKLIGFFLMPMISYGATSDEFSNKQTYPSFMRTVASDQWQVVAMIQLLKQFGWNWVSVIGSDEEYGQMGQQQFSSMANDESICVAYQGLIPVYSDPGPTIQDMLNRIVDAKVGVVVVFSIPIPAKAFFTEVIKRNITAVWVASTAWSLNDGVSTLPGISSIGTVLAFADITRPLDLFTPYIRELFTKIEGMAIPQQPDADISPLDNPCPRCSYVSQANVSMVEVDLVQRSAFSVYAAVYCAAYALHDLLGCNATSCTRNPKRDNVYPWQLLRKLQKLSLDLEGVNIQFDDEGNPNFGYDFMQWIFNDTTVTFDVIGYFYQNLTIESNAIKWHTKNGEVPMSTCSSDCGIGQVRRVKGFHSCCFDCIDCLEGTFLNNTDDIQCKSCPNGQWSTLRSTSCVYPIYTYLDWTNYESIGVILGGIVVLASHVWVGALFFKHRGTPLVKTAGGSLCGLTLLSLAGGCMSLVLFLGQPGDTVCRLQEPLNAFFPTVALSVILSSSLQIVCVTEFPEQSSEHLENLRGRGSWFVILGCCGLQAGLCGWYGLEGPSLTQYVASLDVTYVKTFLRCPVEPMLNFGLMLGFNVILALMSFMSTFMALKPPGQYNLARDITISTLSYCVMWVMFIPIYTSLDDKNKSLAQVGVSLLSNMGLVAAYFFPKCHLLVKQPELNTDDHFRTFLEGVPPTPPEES
Put plainly: Ca2+ mobilization dose-response assay, stable cells expressing zfT1R2b/zfT1R3 with G16gust44. Conditions: 10 mM vs 141.4 mM Cl- buffer.

The target of another assay is T3, zfT1R2a/zfT1R3 (Danio rerio, UniProt A0A8M1N8F9+Q2MHK9).
T3 sequence (A0A8M1N8F9 26-825): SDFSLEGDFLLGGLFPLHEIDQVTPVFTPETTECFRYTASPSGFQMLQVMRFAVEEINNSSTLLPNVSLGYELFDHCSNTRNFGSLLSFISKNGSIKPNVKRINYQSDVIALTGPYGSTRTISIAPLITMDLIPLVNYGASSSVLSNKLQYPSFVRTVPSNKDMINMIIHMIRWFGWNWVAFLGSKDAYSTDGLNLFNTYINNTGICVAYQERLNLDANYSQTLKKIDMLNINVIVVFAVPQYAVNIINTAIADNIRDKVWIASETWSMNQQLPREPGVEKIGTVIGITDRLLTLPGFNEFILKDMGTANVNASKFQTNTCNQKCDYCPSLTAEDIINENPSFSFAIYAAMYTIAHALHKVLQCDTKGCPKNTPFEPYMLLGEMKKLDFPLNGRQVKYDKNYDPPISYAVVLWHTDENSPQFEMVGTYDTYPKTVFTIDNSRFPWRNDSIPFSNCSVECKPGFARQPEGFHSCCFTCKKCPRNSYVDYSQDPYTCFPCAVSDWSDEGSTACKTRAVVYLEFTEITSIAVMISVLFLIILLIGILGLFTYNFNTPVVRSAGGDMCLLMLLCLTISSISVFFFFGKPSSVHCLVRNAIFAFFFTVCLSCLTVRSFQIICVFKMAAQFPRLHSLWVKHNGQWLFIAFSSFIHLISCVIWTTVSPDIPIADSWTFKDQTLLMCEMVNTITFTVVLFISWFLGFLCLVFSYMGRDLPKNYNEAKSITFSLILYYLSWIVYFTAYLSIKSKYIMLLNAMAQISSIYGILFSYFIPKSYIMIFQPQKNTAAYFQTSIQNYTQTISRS
T3 sequence (Q2MHK9 25-850): T2 sequence (Q2MHK9 25-850)
Put plainly: Ca2+ mobilization dose-response assay, stable cells expressing zfT1R2a/zfT1R3 with G16gust44.

The test system of the next assay is mfT1R2b/mfT1R3. The assay can be described thus: Ca2+ mobilization dose-response assay, stable cells expressing mfT1R2b/mfT1R3 with G16gust44. The note with it: 10 mM vs 141.4 mM Cl- buffer.
[1] abbreviates: EC50, [Cl-]o=10 mM, unit inferred.

Molecules are shown by their SMILES.

mfT1R2a K265A/mfT1R3, sequence (Q2MHK5 entry or part of it K265A, one chain of several): as the sequence (Q2MHK5 entry or part of it K265E, one chain of several) above, with E246A counted along it
mfT1R2c/mfT1R3 T105E, sequence (Q2MHK2 entry or part of it T105E): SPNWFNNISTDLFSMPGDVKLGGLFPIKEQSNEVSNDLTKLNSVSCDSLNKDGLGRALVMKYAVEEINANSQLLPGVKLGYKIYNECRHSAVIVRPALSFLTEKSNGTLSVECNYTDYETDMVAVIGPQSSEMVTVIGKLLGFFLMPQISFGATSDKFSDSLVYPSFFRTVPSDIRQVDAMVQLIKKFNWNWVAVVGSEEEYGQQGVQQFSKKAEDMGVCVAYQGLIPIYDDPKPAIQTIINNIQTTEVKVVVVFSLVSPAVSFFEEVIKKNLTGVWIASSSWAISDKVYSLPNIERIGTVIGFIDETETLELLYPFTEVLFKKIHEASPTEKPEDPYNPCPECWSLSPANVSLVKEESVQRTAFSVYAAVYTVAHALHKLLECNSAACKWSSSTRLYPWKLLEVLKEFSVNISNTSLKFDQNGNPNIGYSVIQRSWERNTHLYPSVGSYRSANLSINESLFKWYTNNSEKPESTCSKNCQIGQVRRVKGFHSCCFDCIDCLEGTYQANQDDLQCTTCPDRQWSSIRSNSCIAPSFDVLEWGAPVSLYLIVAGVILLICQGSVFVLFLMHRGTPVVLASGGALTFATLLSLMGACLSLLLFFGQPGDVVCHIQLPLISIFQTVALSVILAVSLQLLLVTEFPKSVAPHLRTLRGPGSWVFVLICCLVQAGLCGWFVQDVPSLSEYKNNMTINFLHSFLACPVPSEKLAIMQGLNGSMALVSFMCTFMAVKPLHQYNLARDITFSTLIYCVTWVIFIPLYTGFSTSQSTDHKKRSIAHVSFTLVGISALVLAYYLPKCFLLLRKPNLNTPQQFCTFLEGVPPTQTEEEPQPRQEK
mfT1R2c/mfT1R3 T105E, sequence (Q2MHK3 entry or part of it): as the sequence (Q2MHK3 22-818, one chain of several) above
mfT1R2a/mfT1R3 T105E, sequence (Q2MHK2 entry or part of it T105E, one chain of several): as the sequence (Q2MHK2 entry or part of it T105E) above
Protocol for mfT1R2a K265A/mfT1R3: (§1) The buffers with lower Cl^− were prepared by progressively replacing NaCl, KCl, CaCl2 and MgCl2 in the buffer with gluconate equivalents[20]. The pH was adjusted to 7.4 with NaOH. Ligands were diluted with the assay buffers at the desired concentrations.
(§2) Measurements of the responses of the cells by cell-based assay based on the intracellular Ca^2+ mobilization were carried out as described previously with some modifications[20],[34],[46],[47]. […] The cells were seeded in 96-well plates (clear-bottomed CellBIND surface plate, Corning, Glendale, AZ, USA) coated with ε-poly-L-lysine (Cosmo Bio, Tokyo, Japan) at approximately 70,000 cells per well. After 20 h, the medium was removed and replaced with high Cl^− buffer. […] Fluorescence changes (i.e., excitation at 485 nm and emission at 525 nm with a cutoff at 515 nm) were monitored at 2 s intervals. […] The response of each well was determined as ∆RFU (delta relative fluorescent units), which was calculated as (maximum fluorescent value)—(minimum fluorescent value). […] Dose‒response fitting curves were calculated by Prism 9 (GraphPad Software, San Diego, CA) using nonlinear regression (log(agonist) vs. response—variable slope), based on the integrated data from the several independent experiments.
Protocol for mfT1R2a K265E/mfT1R3: as §1
(§3) Measurements of the responses of the cells by cell-based assay based on the intracellular Ca^2+ mobilization were carried out as described previously with some modifications[20],[34],[46],[47]. Cell lines stably expressing T1R2, T1R3 and chimeric G-protein α-subunit, G16gust44[48], were constructed using the Flp-In pcDNA5/FRT complete system (Thermo Fisher Scientific, Waltham, MA, USA) described in our previous studies[34],[46]. […] Fluorescence changes (i.e., excitation at 485 nm and emission at 525 nm with a cutoff at 515 nm) were monitored at 2 s intervals. […] The response of each well was determined as ∆RFU (delta relative fluorescent units), which was calculated as (maximum fluorescent value)—(minimum fluorescent value). […] Dose‒response fitting curves were calculated by Prism 9 (GraphPad Software, San Diego, CA) using nonlinear regression (log(agonist) vs. response—variable slope), based on the integrated data from the several independent experiments.
Protocol for mfT1R2a K295P/mfT1R3: as §1, §3
Protocol for mfT1R2a/mfT1R3 T105E: as §1, §3
Protocol for mfT1R2b E260A/mfT1R3: as §1, §2
Protocol for mfT1R2b E260K/mfT1R3: as §1, §2
Protocol for mfT1R2b/mfT1R3: as §1, §2
Protocol for mfT1R2c/mfT1R3 T105E: as §1, §2
Protocol for zfT1R2a/zfT1R3: as §1
(§4) Measurements of the responses of the cells by cell-based assay based on the intracellular Ca^2+ mobilization were carried out as described previously with some modifications[20],[34],[46],[47]. […] The cells were seeded in 96-well plates (clear-bottomed CellBIND surface plate, Corning, Glendale, AZ, USA) coated with ε-poly-L-lysine (Cosmo Bio, Tokyo, Japan) at approximately 70,000 cells per well. After 20 h, the medium was removed and replaced with high Cl^− buffer. After 3 h 30 min incubation at 27 °C, cells were loaded with 5 µM calcium-indicator dye Fluo-8 AM (AAT Bioquest, Sunnyvale, CA, USA) diluted in high Cl^− buffer. After incubation for 30 min at 27 °C, the cells were washed with buffers containing appropriate concentrations of Cl^−. The cellular assay was initiated after 3–5 min of resting and was completed within 5 min. The measurements were made using FlexStation 3 (Molecular Devices, Sunnyvale, CA, USA) at 27 °C. Fluorescence changes (i.e., excitation at 485 nm and emission at 525 nm with a cutoff at 515 nm) were monitored at 2 s intervals. A 100-µL aliquot of assay buffer supplemented with 2 × ligands was added at 20 s, and scanning was continued for an additional 40 s. The response of each well was determined as ∆RFU (delta relative fluorescent units), which was calculated as (maximum fluorescent value)—(minimum fluorescent value). […] Such normalized data from more than three independent experiments are reported as the mean ± standard error of the mean (SEM). Dose‒response fitting curves were calculated by Prism 9 (GraphPad Software, San Diego, CA) using nonlinear regression (log(agonist) vs. response—variable slope), based on the integrated data from the several independent experiments.
Protocol for zfT1R2b/zfT1R3: as §1, §4

On to `NC(=O)CC[C@H](N)C(=O)O` [L-Gln, L-glutamine], for which the EC50 on mfT1R2a/mfT1R3 T105E came out at 864 µM; on mfT1R2a K265A/mfT1R3 it was 0.000283 M; on mfT1R2a K265E/mfT1R3, 0.000208 M; at mfT1R2a K295P/mfT1R3 it was 0.000368 M; at mfT1R2a/mfT1R3 (setting [1]) it was 403 µM. In addition, the “EC50 in 10 mM Cl- buffer relative to high Cl- buffer” value in the assay with mfT1R2a/mfT1R3 (10 mM vs 141.4 mM Cl- buffer) is on record as “approximately 6.5 times higher”.

Turning to `O=C(O)[C@@H]1CCCN1` [L-Pro, L-proline], the “effect of [Cl-]o on sensitivity” value in the assay with mfT1R2b E260K/mfT1R3 and in the assay on mfT1R2b E260A/mfT1R3 was “hardly affected” throughout. In addition, the concentration giving a half-maximal response (EC50) on mfT1R2c/mfT1R3 T105E is 26.3 µM; on mfT1R2c/mfT1R3 (setting [1]), 15 µM; on zfT1R2a/zfT1R3 (setting [1]), 437 µM. Moreover, the “increase in EC50 in 10 mM Cl- buffer compared to high Cl- buffer” value at mfT1R2c/mfT1R3 (10 mM vs 141.4 mM Cl- buffer) was “approximately threefold increase”. Moreover, the “change of EC50 value with [Cl-]o” value on mfT1R2c/mfT1R3 (range from 10 to 80 mM [Cl-]o) is “almost unchanged”. For the same molecule, the “EC50 in 10 mM Cl- buffer relative to high Cl- buffer” value was “approximately half” at zfT1R2b/zfT1R3 and “approximately 5 times higher” on zfT1R2a/zfT1R3 (10 mM vs 141.4 mM Cl- buffer). Further, the “effect of anionic buffer composition on sensitivity” value in the assay with mfT1R2b/mfT1R3 is “hardly affected”.

Values taken from publication PMC10539361, “Allosteric modulation of the fish taste receptor type 1 (T1R) family by the extracellular chloride ion” (Scientific Reports, 2023).
